Measured values taken from US6835382B2, “Ii peptide therapeutics to enhance antigen presentation” (University of Massachusetts, priority 1996, dated 2004).
Non-standard residues stand in square brackets, D forms with d. Cit = NC(=O)NCCC[C@H](N)C(=O)O; Orn = NCCC[C@H](N)C(=O)O

Assays:
[1] = tested on: murine E^k MHC class II allele; assay: simultaneous assay, E^k allele (CH27 APC, TPc9.1 T hybridoma, THMCC82-103 or PGCC81-104); assay type: cell-based; settings: for Times Baseline Response, Ek: Table 3, values reduced relative to E^d by a factor of 10
Experimental: (§1) Examples 1-4 (Tables 1-18) will be briefly considered in order to establish the concept of tolerance discussed above. These examples describe experimental results observed in the so-called “simultaneous” assay. In the simultaneous assay four principle components are cultured together for a 24 hour period. The components of this culture, which are added simultaneously, are: (a) an antigenic peptide characterized by the ability to bind specifically into the antigenic peptide binding groove of an MHC class II molecule, (b) mitomycin C-treated, MHC class II-positive antigen presenting cells (APC) bearing the MHC class II allele required for binding of the specific antigenic peptide, and presentation of the specific antigenic peptide to the antigenic peptide-specific T cell hybridoma, (c) an effector compound of the present invention, and (d) an MHC class II allele-restricted T cell hybridoma specific for the antigenic peptide and the MHC class II allele restricting its presentation. Following incubation of this primary culture, an aliquot of its supernatant is transferred into a second culture well for incubation with an interleukin-dependent lymphoblastoid cell line. The degree of stimulation of that second, indicator cell by the interleukins which had been released from the activated T cell hybridoma in the primary culture is measured by quantitating tritiated thymidine deoxyribose {[^3H]TdR} uptake into the DNA of the HT-2 indicator cells of that second culture.
(§2) In the “simultaneous assay” the four components of the assay are cultured together for a 24 h period. The components of this primary culture, added at the same time or simultaneously, are: (a) the antigenic peptide, (b) mitomycin C-treated, MHC class II-positive antigen presenting cells (APC) with the MHC class II allele required for binding of the specific antigenic peptide and its presentation to the antigenic peptide-specific T cell hybridoma, (c) an AE101 series effector peptide, and (d) MHC class II allele-restricted T cell hybridoma specific for the antigenic peptide and the MHC class II allele restricting its presentation. At the end of the incubation of this primary culture, an aliquot of its supernatant is transferred into a second culture well for incubation with an interleukin-dependent lymphoblastoid cell line. The degree of stimulation of that second, indicator cell by the interleukins which had been released from the activated T cell hybridoma in the primary culture is measured by quantitating tritiated thymidine deoxyribose {[^3H]TdR} uptake into the DNA of the HT-2 indicator cells of that second culture.
(§3) For these various assays, the following antigenic peptides were used: HEL11-25, hen egg lysozyme 11-25, AMKRHGLDNYRGYSL(A^d) (SEQ ID NO:5); HEL46-61, hen egg lysozyme 46-61, NTDGSTDYGILQINSR(Ak) (SEQ ID NO:6); HEL106-116, hen egg lysozyme 106-116, NAWVAWRNRCK (E^d) (SEQ ID NO:7); PGCC81-104, pigeon cytochrome c 81-104, […] (Ek) (SEQ ID NO:8), and THMCC82-103, tobacco hornworm moth cytochrome c 82-103, […] (Ek) (SEQ ID NO:9). AE101 series peptides were obtained from commercial sources. In general, the purity and composition of each peptide was confirmed by HPLC separation and mass spectrometry. The native protein antigens were HEL, hen egg lysozyme, and PGCC, pigeon cytochrome C. They were obtained from commercial sources.
(§4) For the experiments of these Examples, several T cell hybridomas, which are specific for certain antigenic peptides, were used. The TPc9.1 T hybridoma is specific for pigeon cytochrome C 81-104 peptide presented on the murine class II MHC allele E^k. The TPc9.1 hybridoma responds heteroclitically to tobacco hornworm moth cytochrome c 82-103 on E^k. The 3A9 T hybridoma is specific for hen egg lysozyme 46-61 on A^k. The 9.30.B2 hybridoma is specific for hen egg lysozyme 11-25 on A^d, and the G28.C9 hybridoma is specific for hen egg lysozyme 106-116 on E^d. […]

[2] = molecular target: T1, murine E^d MHC class II allele (Mus musculus, UniProt P01904+P01915); assay: simultaneous assay, E^d allele (A20 APC, G28.C9 T hybridoma, HEL106-116; HT-2 [3H]TdR readout); assay type: cell-based; design: The A20 and CH27 B cell lymphoma lines express H-2^d and H-2^k alleles, respectively; endogenous in cells; host or cells: A20 B cell lymphoma (mitomycin C-treated or paraformaldehyde-fixed); settings: for Times Baseline Response, Ed: Table 3, AE peptide 64 μM; for activity in simultaneous assay on E^d and E^k, in words: Tables 12 and 18
T1 sequence (P01904 26-255): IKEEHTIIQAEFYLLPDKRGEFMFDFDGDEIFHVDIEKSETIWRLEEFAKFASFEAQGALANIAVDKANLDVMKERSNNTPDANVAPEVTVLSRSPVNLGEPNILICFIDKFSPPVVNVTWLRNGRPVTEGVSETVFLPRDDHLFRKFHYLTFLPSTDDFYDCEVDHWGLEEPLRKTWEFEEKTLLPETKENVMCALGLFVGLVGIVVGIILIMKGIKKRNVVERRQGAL
T1 sequence (P01915 27-264 limits assumed): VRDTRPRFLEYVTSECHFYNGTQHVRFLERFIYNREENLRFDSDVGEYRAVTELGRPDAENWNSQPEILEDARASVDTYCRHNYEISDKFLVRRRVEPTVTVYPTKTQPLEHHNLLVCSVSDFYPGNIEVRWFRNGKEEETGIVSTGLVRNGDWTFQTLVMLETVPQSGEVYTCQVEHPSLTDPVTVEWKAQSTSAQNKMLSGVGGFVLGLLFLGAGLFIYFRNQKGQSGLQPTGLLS
Experimental: as §1, §2, §3, §4

[3] = tested on: HLA-DR1 molecules; assay: release of biotin-labeled hMBP(90-102) from HLA-DR1 without unlabeled antigenic peptide (assay I); assay type: binding, human; settings: Table 36; AE101 series compound 64 μM; fraction of o.d. of positive control (PBS only = 1.0; negative control = 0.0)
[4] = Table 1, AE peptide 16 μM (second value), 0.075 μM THMCC82-103, supernatant 1:2
[5] = Table 1, AE peptide 64 μM (first value), 0.075 μM THMCC82-103, supernatant 1:2
[6] = Table 1, AE peptide 16 μM (second value), 0.4 μM HEL106-116, supernatant 1:4
[7] = Table 1, AE peptide 64 μM (first value), 0.4 μM HEL106-116, supernatant 1:4
[8] = AE peptide 64 μM, supernatant 1:4
[9] = Table 12, AE peptide 1 μM (fourth value), supernatant 1:4
[10] = Table 12, AE peptide 4 μM (third value), supernatant 1:4
[11] = Table 12, AE peptide 16 μM (second value), supernatant 1:4
[12] = Table 12, AE peptide 64 μM (first value), supernatant 1:4
[13] = Table 12, AE peptide 1 μM (fourth value), supernatant 1:2
[14] = Table 12, AE peptide 4 μM (third value), supernatant 1:2
[15] = Table 12, AE peptide 16 μM (second value), supernatant 1:2
[16] = Table 12, AE peptide 64 μM (first value), supernatant 1:2

In the case of Ac-YRMKLPKS-NH2 [AE112], the “Times Baseline Response, E^k” value [1, 4] is reported as 3.2, the “Times Baseline Response, E^k” value [1, 5] is reported as 15.3 and the “Times Baseline Response, E^d” value [2, 6] is reported as 26.2. For the same substance, the “Times Baseline Response, E^d” value [2, 7] was 42.8.

For Ac-YRMKLPKSA-NH2 [AE111], the “Times Baseline Response, E^k” value [1, 4] was 2.0, the “Times Baseline Response, E^k” value [1, 5] was 7.2 and the “Times Baseline Response, E^d” value [2, 6] was 18.8. The “Times Baseline Response, E^d” value [2, 7] was 39.2.

With Ac-YRMKLPKSAA-NH2 [AE128] the “Times Baseline Response, E^k” value ([1]; Table 10, AE peptide 64 μM, supernatant 1:2 (first value)) was 51.9, the “Times Baseline Response, E^k” value ([1]; Table 10, AE peptide 64 μM, supernatant 1:4 (second value)) was 58.6 and the “Times Baseline Response, E^d” value ([2]; Table 10, AE peptide 16 μM (second value), supernatant 1:2) was 29.5. The “Times Baseline Response, E^d” value ([2]; Table 10, AE peptide 64 μM (first value), supernatant 1:2) was 33.0.

For Ac-[Cit]RMKLPK-NH2 [AE181], the “Times Baseline Response, Ek” value [1, 8] was 11.5 and the “Times Baseline Response, Ed” value ([2]; supernatant 1:4) was 9.0.

In the case of Ac-[Orn]RMKLPK-NH2 [AE180], the “Times Baseline Response, Ek” value [1, 8] is reported as 10.8 and the “Times Baseline Response, Ed” value ([2]; supernatant 1:4) is reported as 12.6.

For Ac-kplkmrl-NH2 [AE171], the “Times Baseline Response, E^k” value [1, 9] was 1.9, the “Times Baseline Response, E^k” value [1, 10] was 1.4 and the “Times Baseline Response, E^k” value [1, 11] was 2.0. The “Times Baseline Response, E^k” value [1, 12] was 3.6, the “Times Baseline Response, E^d” value [2, 13] was 1.4 and the “Times Baseline Response, E^d” value [2, 14] was 1.4. For the same substance, the “Times Baseline Response, E^d” value [2, 15] was 1.5, the “Times Baseline Response, E^d” value [2, 16] was 1.3 and the “activity in simultaneous assay on E^d and E^k, in words” value [2] was “inactive”.

Ac-lrmklpk-NH2 [AE170] was tested, and the “Times Baseline Response, E^k” value [1, 9] was 1.7, the “Times Baseline Response, E^k” value [1, 10] was 2.1 and the “Times Baseline Response, E^k” value [1, 11] was 2.4. For the same substance, the “Times Baseline Response, E^k” value [1, 12] was 2.8, the “Times Baseline Response, E^d” value [2, 13] was 1.3 and the “Times Baseline Response, E^d” value [2, 14] was 1.3. The “Times Baseline Response, E^d” value [2, 15] was 1.2, the “Times Baseline Response, E^d” value [2, 16] was 1.1 and the “activity in simultaneous assay on E^d and E^k, in words” value [2] was “inactive”.

For KLPKSAKPVSQMR [AE103], the “Times Baseline Response, E^k” value [1, 4] was 0.7, 0.7, the “Times Baseline Response, E^k” value [1, 5] was 0.7, 0.7 and the “Relative Release” value [3] was 0.01. The “Times Baseline Response, E^d” value [2, 6] was 1.3 and the “Times Baseline Response, E^d” value [2, 7] was 3.4.

PKSAKPVSQMR [AE104] was tested, and the “Times Baseline Response, E^k” value [1, 4] was 1.1, the “Times Baseline Response, E^k” value [1, 5] was 0.8 and the “Relative Release” value [3] was 0.02. The “Times Baseline Response, E^d” value [2, 6] was 0.9 and the “Times Baseline Response, E^d” value [2, 7] was 2.6.
